Reference: patent publication US20250313563A1, “GLYCOGEN SYNTHASE KINASE 3 INHIBITORS AND USES THEREOF” (The Broad Institute, Inc., priority 2022, published 2025)
Where two headings read alike, the source gives them in different places.

How the values were obtained:
[1] = molecular target: GSK3b (GST-full length GSK3b) (Homo sapiens (Human), UniProt P49841); experiment: GSK3b TR-FRET kinase assay; assay type: biochemical; settings: IC50
How it was run: (§1)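 1 nM GST-GSK3α/β + cpd, 30 min preinc; add 200 nM biotin-pS645 GS(631-650) peptide + ATP (α 4 μM / β 2 μM, or 1 mM); 100 min RT, 50 mM Tris pH 7.5, 20 mM MgCl2, 1% DMSO; EDTA stop; SA-d2/Tb-pSer641 Ab 60 min; 665/615 ratio → IC50.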

[2] = molecular target: GSK3α (GST-full length GSK3α) (Homo sapiens (Human), UniProt P49840); experiment: GSK3α TR-FRET kinase assay; assay type: biochemical; settings: IC50
Sequence of GSK3α (GST-full length GSK3α) (P49840 whole entry): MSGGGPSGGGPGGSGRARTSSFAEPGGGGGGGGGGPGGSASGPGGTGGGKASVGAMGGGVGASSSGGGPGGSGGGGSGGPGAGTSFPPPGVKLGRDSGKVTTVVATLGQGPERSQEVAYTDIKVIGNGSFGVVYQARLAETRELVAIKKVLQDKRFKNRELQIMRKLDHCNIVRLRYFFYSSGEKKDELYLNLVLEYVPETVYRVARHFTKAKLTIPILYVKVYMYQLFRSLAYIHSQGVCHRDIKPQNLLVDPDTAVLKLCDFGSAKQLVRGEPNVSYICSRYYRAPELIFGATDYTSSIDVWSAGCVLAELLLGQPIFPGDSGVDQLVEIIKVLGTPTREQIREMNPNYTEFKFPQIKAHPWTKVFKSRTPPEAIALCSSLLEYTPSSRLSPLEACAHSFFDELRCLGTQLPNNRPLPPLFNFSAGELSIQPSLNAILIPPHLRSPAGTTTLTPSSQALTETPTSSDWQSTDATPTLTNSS
How it was run: as §1

[3] = 1 nM GSK3b, 2 μM ATP, 30 minute preincubation, read-out: GSK3-B TR-FRET BIOCHEMICAL (TR-FRET)
[4] = 1 nM GSK3α, 4 μM ATP, 30 minute preincubation, read-out: GSK3-A TR-FRET BIOCHEMICAL (TR-FRET)
[5] = read-out: GSK3-B (TR-FRET 1 mM ATP), GMean, 1 mM ATP, geometric mean
[6] = read-out: GSK3-A (TR-FRET 1 mM ATP), GMean, 1 mM ATP, geometric mean

Sequence of GSK3b (GST-full length GSK3b) (P49841 whole entry): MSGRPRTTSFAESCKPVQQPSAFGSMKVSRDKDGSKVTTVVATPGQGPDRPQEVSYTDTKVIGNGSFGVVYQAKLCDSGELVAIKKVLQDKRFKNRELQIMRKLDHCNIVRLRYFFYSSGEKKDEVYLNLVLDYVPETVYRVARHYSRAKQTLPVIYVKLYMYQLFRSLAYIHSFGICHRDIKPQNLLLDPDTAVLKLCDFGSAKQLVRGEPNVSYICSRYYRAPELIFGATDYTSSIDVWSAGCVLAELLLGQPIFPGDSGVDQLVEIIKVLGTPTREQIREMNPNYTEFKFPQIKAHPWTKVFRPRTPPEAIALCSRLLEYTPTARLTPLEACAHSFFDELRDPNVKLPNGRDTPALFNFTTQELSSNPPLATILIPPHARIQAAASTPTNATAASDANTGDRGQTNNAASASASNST

SMILES	IC50 [1, 3] [nM]	IC50 [2, 4] [nM]	IC50 [1, 5] [nM]	IC50 [2, 6] [nM]
CC1(C)CC(=O)C2=C(C1)Nc1n[nH]cc1C21COC2(CN(C(=O)C3CC3(F)F)C2)C1 (centres unmarked) [Compound 947272]	≤ 100	≤ 100		
CC1(C)CC(=O)C2=C(C1)Nc1n[nH]cc1C21COC2(CN(C(=O)C(C)(C)F)C2)C1 (centres unmarked) [Compound 947276]	≤ 100	≤ 100		
CC1(C)CC(=O)C2=C(C1)Nc1n[nH]cc1C21COC2(CN(C(=O)CC3CC(F)(F)C3)C2)C1 (centres unmarked) [Compound 947278]	≤ 100	≤ 100		
CC1(C)CC(=O)C2=C(C1)Nc1n[nH]cc1C21COC2(CN(C(=O)C3(F)CCC3)C2)C1 (centres unmarked) [Compound 947279]	≤ 100	≤ 100		
CC1(C)CC(=O)C2=C(C1)Nc1n[nH]cc1C21COC2(CN(C(=O)C(F)(F)F)C2)C1 (centres unmarked) [Compound 947280]	≤ 100	≤ 100		
Cc1ccc(CC(=O)N2CC3(C2)CC2(CO3)C3=C(CC(C)(C)CC3=O)Nc3n[nH]cc32)cc1 (centres unmarked) [Compound 947281]	≤ 100	≤ 100	100 to 1000	100 to 1000
CC1(C)CC(=O)C2=C(C1)Nc1n[nH]cc1C21COC2(CN(C(=O)C3CC(C)(C)C3)C2)C1 (centres unmarked) [Compound 947282]	100 to 1000	≤ 100		
CC1(C)CC(=O)C2=C(C1)Nc1n[nH]cc1C21COC2(CN(C(=O)c3cccc(F)c3)C2)C1 (centres unmarked) [Compound 947283]	≤ 100	≤ 100		
Cc1ccc(C(=O)N2CC3(C2)CC2(CO3)C3=C(CC(C)(C)CC3=O)Nc3n[nH]cc32)cc1C (centres unmarked) [Compound 947286]	≤ 100	≤ 100		
CC1(C)CC(=O)C2=C(C1)Nc1n[nH]cc1C21COC2(CN(C(=O)c3ccccc3F)C2)C1 (centres unmarked) [Compound 947289]	≤ 100	≤ 100		
Cc1ccc(C(=O)N2CC3(C2)CC2(CO3)C3=C(CC(C)(C)CC3=O)Nc3n[nH]cc32)cc1 (centres unmarked) [Compound 947290]	≤ 100	≤ 100		
CC1(C)CC(=O)C2=C(C1)Nc1n[nH]cc1C21COC2(CN(C(=O)c3ccc(F)cc3)C2)C1 (centres unmarked) [Compound 947292]	≤ 100	≤ 100		
Cc1ccc(C(=O)N2CC3(C2)CC2(CO3)C3=C(CC(C)(C)CC3=O)Nc3n[nH]cc32)c(C)c1 (centres unmarked) [Compound 947294]	100 to 1000	≤ 100		

Results, then the compound that gave them:

IC50 [1, 3] [nM]	IC50 [2, 4] [nM]	IC50 [1, 5] [nM]	IC50 [2, 6] [nM]	SMILES
100 to 1000	≤ 100			CC1(C)CC(=O)C2=C(C1)Nc1n[nH]cc1C21COC2(CN(C(=O)C3(C)CC(F)C3)C2)C1 (centres unmarked) [Compound 947271]
≤ 100	≤ 100			CC(C)C1CC(C(=O)N2CC3(C2)CC2(CO3)C3=C(CC(C)(C)CC3=O)Nc3n[nH]cc32)C1 (centres unmarked) [Compound 947273]
100 to 1000	≤ 100			CC1CCCC1C(=O)N1CC2(C1)CC1(CO2)C2=C(CC(C)(C)CC2=O)Nc2n[nH]cc21 (centres unmarked) [Compound 947274]
≤ 100	≤ 100	100 to 1000	100 to 1000	CC1(C)CC(=O)C2=C(C1)Nc1n[nH]cc1C21COC2(CN(C(=O)C(C)(F)F)C2)C1 (centres unmarked) [Compound 947275]
≤ 100	≤ 100			CC1(C)CC(=O)C2=C(C1)Nc1n[nH]cc1C21COC2(CN(C(=O)C3(F)CCCC3)C2)C1 (centres unmarked) [Compound 947277]
100 to 1000	≤ 100			Cc1cccc(C(=O)N2CC3(C2)CC2(CO3)C3=C(CC(C)(C)CC3=O)Nc3n[nH]cc32)c1C (centres unmarked) [Compound 947284]
100 to 1000	≤ 100			Cc1ccc(C)c(C(=O)N2CC3(C2)CC2(CO3)C3=C(CC(C)(C)CC3=O)Nc3n[nH]cc32)c1 (centres unmarked) [Compound 947285]
100 to 1000	≤ 100			Cc1ccccc1C(=O)N1CC2(C1)CC1(CO2)C2=C(CC(C)(C)CC2=O)Nc2n[nH]cc21 (centres unmarked) [Compound 947287]
≤ 100	≤ 100	100 to 1000	100 to 1000	CC1(C)CC(=O)C2=C(C1)Nc1n[nH]cc1C21COC2(CN(C(=O)C3CCC3)C2)C1 (centres unmarked) [Compound 947288]
100 to 1000	≤ 100			CC1(C)CC(=O)C2=C(C1)Nc1n[nH]cc1C21COC2(CN(C(=O)C3CCCCC3)C2)C1 (centres unmarked) [Compound 947291]
≤ 100	≤ 100			CC1(C)CC(=O)C2=C(C1)Nc1n[nH]cc1C21COC2(CN(C(=O)CC3CCCC3)C2)C1 (centres unmarked) [Compound 947293]
≤ 100	≤ 100			Cc1ccccc1CC(=O)N1CC2(C1)CC1(CO2)C2=C(CC(C)(C)CC2=O)Nc2n[nH]cc21 (centres unmarked) [Compound 947295]
